Measured values taken from patent publication US20230286970A1, “NOVEL OXADIAZOLE-BASED SELECTIVE HDAC6 INHIBITORS” (ITALFARMACO S.P.A., priority 2020, published 2023).

Tests used:
recombinant human HDAC1 = recombinant human HDAC1 (Homo sapiens (Human), UniProt Q13547); assay: Enzymatic screening, HDAC1 inhibition (fluorogenic FdL_G substrate); format: biochemical
How it was run: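 Recombinant human HDAC1 inhibition was measured fluorometrically using the FLUOR DE LYS-Green (FdL_G) substrate. Compounds at 8 doses (1% DMSO final) in Tris-HCl pH 8 buffer with NaCl, Tween-20 and glycerol were preincubated in triplicate with enzyme and 1 mg/mL BSA, then given substrate. Developer I plus 2 μM TSA was added, and fluorescence read after 25 minutes in the dark.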

recombinant human HDAC6 = recombinant human HDAC6 (Homo sapiens (Human), UniProt Q9UBN7); assay: Enzymatic screening, HDAC6 inhibition (fluorogenic FdL_G substrate); format: biochemical
How it was run: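 Enzyme was preincubated with compound (8 doses, triplicate, 1% DMSO) in 25 mM Tris-HCl pH 8, 130 mM NaCl, 0.05% Tween-20, 10% glycerol, with BSA. A FLUOR DE LYS-Green substrate was then added, and fluorescence was read after developer plus 2 μM TSA.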

[1] = Stability in human plasma; details: after 4 hours, 37° C.
[2] = Stability to Phase I metabolism in human S9 liver fraction; details: after 90 minutes, 37° C.
[3] = Stability to Phase I metabolism in rat S9 liver fraction; details: after 90 minutes, 37° C.
Stability in rat plasma = details: after 4 hours, 37° C.

Sequence of recombinant human HDAC6 (Q9UBN7 whole entry): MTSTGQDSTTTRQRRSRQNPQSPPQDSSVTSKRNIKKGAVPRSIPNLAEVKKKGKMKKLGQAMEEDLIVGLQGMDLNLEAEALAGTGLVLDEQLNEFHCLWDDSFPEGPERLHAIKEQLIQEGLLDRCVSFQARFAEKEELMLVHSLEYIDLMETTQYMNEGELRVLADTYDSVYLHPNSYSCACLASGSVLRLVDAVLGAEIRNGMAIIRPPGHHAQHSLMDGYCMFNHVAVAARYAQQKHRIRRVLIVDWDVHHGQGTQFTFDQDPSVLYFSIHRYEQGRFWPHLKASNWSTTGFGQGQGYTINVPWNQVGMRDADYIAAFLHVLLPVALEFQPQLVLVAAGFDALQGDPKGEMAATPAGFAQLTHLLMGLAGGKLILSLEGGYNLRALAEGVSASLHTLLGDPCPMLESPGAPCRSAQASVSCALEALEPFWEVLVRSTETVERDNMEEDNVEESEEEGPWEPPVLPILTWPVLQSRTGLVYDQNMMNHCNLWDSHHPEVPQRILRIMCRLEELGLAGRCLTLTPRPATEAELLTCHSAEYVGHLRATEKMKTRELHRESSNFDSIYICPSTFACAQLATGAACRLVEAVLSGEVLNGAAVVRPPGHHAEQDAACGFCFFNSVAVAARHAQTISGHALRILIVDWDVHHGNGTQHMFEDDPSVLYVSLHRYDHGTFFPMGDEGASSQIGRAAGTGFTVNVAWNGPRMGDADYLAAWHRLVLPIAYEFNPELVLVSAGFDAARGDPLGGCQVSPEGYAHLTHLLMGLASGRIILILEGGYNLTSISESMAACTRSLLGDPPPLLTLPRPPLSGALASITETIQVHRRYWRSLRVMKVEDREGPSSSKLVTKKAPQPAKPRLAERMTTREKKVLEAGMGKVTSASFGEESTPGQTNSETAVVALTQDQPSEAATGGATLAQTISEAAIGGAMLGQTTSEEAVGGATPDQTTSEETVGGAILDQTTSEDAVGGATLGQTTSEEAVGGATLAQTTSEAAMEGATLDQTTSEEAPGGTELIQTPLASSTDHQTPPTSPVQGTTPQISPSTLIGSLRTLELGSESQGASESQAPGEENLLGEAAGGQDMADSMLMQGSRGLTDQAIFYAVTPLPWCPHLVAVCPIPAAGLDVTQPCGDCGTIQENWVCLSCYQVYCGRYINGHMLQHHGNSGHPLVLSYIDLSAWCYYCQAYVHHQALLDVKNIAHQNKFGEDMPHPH
Sequence of recombinant human HDAC1 (Q13547 whole entry): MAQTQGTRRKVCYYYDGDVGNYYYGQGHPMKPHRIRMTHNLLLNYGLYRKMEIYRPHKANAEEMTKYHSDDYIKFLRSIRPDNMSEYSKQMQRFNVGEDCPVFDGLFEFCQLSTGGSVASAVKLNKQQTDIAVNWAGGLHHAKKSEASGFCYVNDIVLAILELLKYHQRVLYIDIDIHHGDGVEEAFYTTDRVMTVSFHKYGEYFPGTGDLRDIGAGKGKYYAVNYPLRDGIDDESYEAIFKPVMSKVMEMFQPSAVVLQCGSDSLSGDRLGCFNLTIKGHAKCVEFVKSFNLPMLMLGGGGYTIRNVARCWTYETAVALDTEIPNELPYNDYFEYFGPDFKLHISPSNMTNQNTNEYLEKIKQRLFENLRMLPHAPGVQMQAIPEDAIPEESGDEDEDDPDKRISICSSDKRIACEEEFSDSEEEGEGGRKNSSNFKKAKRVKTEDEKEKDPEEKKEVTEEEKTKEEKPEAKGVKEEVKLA

Compound	IC50 (recombinant human HDAC1) [µM]	IC50 (recombinant human HDAC6) [nM]	residual percentage in HUMAN PLASMA [1] [%]	residual percentage in HUMAN S9 FRACTION [2] [%]	residual percentage in RAT S9 FRACTION [3] [%]	residual percentage in RAT PLASMA (Stability in rat plasma) [%]
CCNC(=O)c1cccc(-c2nnn(Cc3ccc(-c4nnc(C(F)F)o4)cc3)n2)c1 [compound 91, 3-(2-(4-(5-(difluoromethyl)-1,3,4-oxadiazol-2-yl)benzyl)-2H-tetrazol-5-yl)-N-ethylbenzamide]	> 200	35	78	74	68	93
FC(F)c1nnc(-c2ccc(Cn3nnc(-c4ccc5ccccc5n4)n3)cc2)o1 [compound 113, 2-(difluoromethyl)-5-(4-((5-(quinolin-2-yl)-2H-tetrazol-2-yl)methyl)phenyl)-1,3,4-oxadiazole]	> 200	43	75	76	85	92
Nc1cncc(-c2nnn(Cc3ccc(-c4nnc(C(F)F)o4)cc3)n2)c1 [compound 90, 5-(2-(4-(5-(difluoromethyl)-1,3,4-oxadiazol-2-yl)benzyl)-2H-tetrazol-5-yl)pyridin-3-amine]	> 200	34	80	83	13	88
CC(=O)Nc1cccc(-c2cn(Cc3ccc(-c4nnc(C(F)F)o4)cn3)nn2)c1 [compound 37, N-(3-(1-((5-(5-(difluoromethyl)-1,3,4-oxadiazol-2-yl)pyridin-2-yl)methyl)-1H-1,2,3-triazol-4-yl)phenyl)acetamide]	> 200	17	90	71	78	83
O=C(Nc1cccc(-c2cn(Cc3ccc(-c4nnc(C(F)F)o4)cn3)cn2)c1)N1CCOCC1 [compound 264, N-(3-(1-((5-(5-(difluoromethyl)-1,3,4-oxadiazol-2-yl)pyridin-2-yl)methyl)-1H-imidazol-4-yl)phenyl)morpholine-4-carboxamide]	> 200	19	80	93	92	94
Nc1ccc(-c2nnn(Cc3ccc(-c4nnc(C(F)F)o4)cc3)n2)cn1 [compound 64, 5-(2-(4-(5-(difluoromethyl)-1,3,4-oxadiazol-2-yl)benzyl)-2H-tetrazol-5-yl)pyridin-2-amine]	> 200	28	69	103	9	70
O=C1Nc2ccc(-c3cn(Cc4ccc(-c5nnc(C(F)F)o5)cn4)nn3)cc2NC12CCNCC2 [compound 36]	> 200	16	78	89	94	76
CC(c1ccc(-c2nnc(C(F)F)o2)cc1F)n1cc(-c2ccc(N)nc2)nn1 (stereo not drawn) [compound 185, 5-(1-(1-(4-(5-(difluoromethyl)-1,3,4-oxadiazol-2-yl)-2-fluorophenyl)ethyl)-1H-1,2,3-triazol-4-yl)pyridin-2-amine]	> 200	96	97	86	69	62
Nc1ccc(-c2nnc(Cc3ccc(-c4nnc(C(F)F)o4)cc3)o2)cn1 [Compd. 218, 5-(5-(4-(5-(difluoromethyl)-1,3,4-oxadiazol-2-yl)benzyl)-1,3,4-oxadiazol-2-yl)pyridin-2-amine]	> 200	156	92	86	89	69
CC(=O)c1cccc(-c2nnn(Cc3ccc(-c4nnc(C(F)F)o4)cc3)n2)c1 [compound 140, 1-(3-(2-(4-(5-(difluoromethyl)-1,3,4-oxadiazol-2-yl)benzyl)-2H-tetrazol-5-yl)phenyl)ethan-1-one]	> 200	55	99	87	0	58
CCC[C@H](c1ccc(-c2nnc(C(F)F)o2)cc1)n1cc(-c2ccc(N)nc2)nn1 [compound 143, (R)-5-(1-(1-(4-(5-(difluoromethyl)-1,3,4-oxadiazol-2-yl)phenyl)butyl)-1H-1,2,3-triazol-4-yl)pyridin-2-amine]	> 200	60	60	89	71	80
CCNc1ccc(-c2nnn(Cc3ccc(-c4nnc(C(F)F)o4)cc3)n2)cn1 [compound 99, 5-(2-(4-(5-(difluoromethyl)-1,3,4-oxadiazol-2-yl)benzyl)-2H-tetrazol-5-yl)-N-ethylpyridin-2-amine]	> 200	38	86	52	18	93
FC(F)c1nnc(-c2ccc(Cn3cc(-c4ccc5[nH]c(N6CCOCC6)nc5c4)nn3)cc2)o1 [Compd. 174, 4-(5-(1-(4-(5-(difluoromethyl)-1,3,4-oxadiazol-2-yl)benzyl)-1H-1,2,3-triazol-4-yl)-1H-benzo[d]imidazol-2-yl)morpholine]	> 200	87	88	91	72	80
NC(=O)c1cc(-c2nnn(Cc3ccc(-c4nnc(C(F)F)o4)cc3)n2)cnc1N [compound 76, 2-amino-5-(2-(4-(5-(difluoromethyl)-1,3,4-oxadiazol-2-yl)benzyl)-2H-tetrazol-5-yl)nicotinamide]	> 200	32	74	53	89	73
CC(c1ccc(-c2nnc(C(F)F)o2)cc1)n1cc(-c2ccc(N)nc2)nn1 (stereo not drawn) [Compd. 117, 5-(1-(1-(4-(5-(difluoromethyl)-1,3,4-oxadiazol-2-yl)phenyl)ethyl)-1H-1,2,3-triazol-4-yl)pyridin-2-amine]	> 200	44	92	93	71	74
CCC[C@@H](c1ccc(-c2nnc(C(F)F)o2)cc1)n1cc(-c2ccc(N)nc2)nn1 [compound 250, (S)-5-(1-(1-(4-(5-(difluoromethyl)-1,3,4-oxadiazol-2-yl)phenyl)butyl)-1H-1,2,3-triazol-4-yl)pyridin-2-amine]	> 200	293	91	88	89	82
CC(=O)Nc1cc(-c2nnn(Cc3ccc(-c4nnc(C(F)F)o4)cc3)n2)cnc1C [compound 133, N-(5-(2-(4-(5-(difluoromethyl)-1,3,4-oxadiazol-2-yl)benzyl)-2H-tetrazol-5-yl)-2-methylpyridin-3-yl)acetamide]	> 200	51	88	98	78	69
CC[C@H](c1ccc(-c2nnc(C(F)F)o2)cc1)n1cc(-c2ccc(N)nc2)nn1 (stereo in doubt) [compound 194, 5-(1-(1-(4-(5-(difluoromethyl)-1,3,4-oxadiazol-2-yl)phenyl)propyl)-1H-1,2,3-triazol-4-yl)pyridin-2-amine]	> 200	104	90	95	77	88
O=C1Nc2ccc(-c3cn(Cc4ccc(-c5nnc(C(F)F)o5)cn4)nn3)cc2C12CCNC2 (stereo not drawn) [compound 28, 5-(1-((5-(5-(difluoromethyl)-1,3,4-oxadiazol-2-yl)pyridin-2-yl)methyl)-1H-1,2,3-triazol-4-yl)spiro[indoline-3,3′-pyrrolidin]-2-one]	> 200	13	74	98	97	64
CCC[C@@H](c1ccc(-c2nnc(C(F)F)o2)cc1)n1cc(-c2ccc(N)nc2)nn1 (stereo in doubt) [compound 193, 5-(1-(1-(4-(5-(difluoromethyl)-1,3,4-oxadiazol-2-yl)phenyl)butyl)-1H-1,2,3-triazol-4-yl)pyridin-2-amine]	> 200	104	81	87	80	92
